Measurements as given in US7001997B2, “Proteins, their production and use” (Takeda Chemical Industries, Ltd., priority 1996, dated 2006).

Tests used:
[1] = target: T1, human liver-derived metalloprotease (Homo sapiens, UniProt Q99542); assay: Inhibitor screening system with fluorogenic substrate DNP-Pro-Cha-Abu-Cys(Me)-His-Ala-Lys(N-Me-Abz)-NH2; format: biochemical; parameters: the objective metalloprotease of about 46 kDa was eluted with buffer E (QIAexpress System); 6xHis (vector-encoded N-terminal tag of pQE30); made in house; host or cells: Escherichia coli JM109/pNHMB; conditions: 10 μM substrate, 37° C., 16 hours, excitation 365 nm, emission 460 nm; read-out: 50% inhibitory concentration of metalloprotease activity
T1 sequence (Q99542 98-508): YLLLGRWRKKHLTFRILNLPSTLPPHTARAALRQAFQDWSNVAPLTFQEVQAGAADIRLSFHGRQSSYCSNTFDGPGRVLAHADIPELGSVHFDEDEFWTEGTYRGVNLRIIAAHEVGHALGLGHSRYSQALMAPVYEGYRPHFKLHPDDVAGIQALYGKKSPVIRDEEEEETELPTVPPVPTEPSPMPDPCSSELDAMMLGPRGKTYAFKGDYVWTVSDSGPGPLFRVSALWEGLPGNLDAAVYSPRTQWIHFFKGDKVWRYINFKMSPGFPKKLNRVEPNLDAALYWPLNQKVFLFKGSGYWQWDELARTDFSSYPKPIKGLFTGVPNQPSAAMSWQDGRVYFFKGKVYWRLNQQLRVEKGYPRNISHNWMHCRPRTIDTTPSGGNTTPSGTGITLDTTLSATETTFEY
Method: A 96-well plate (Fluoro B Plate, Dainippon Pharmaceutical) was filled in with 30 μL of buffer (0.25 M Tris-HCl (pH 8.0), 5 mM CaCl2, 100 mM NaCl, 10 μM ZnCl2) and 20 μL of the recombinant human liver-derived metalloprotease (2.4 mg/ml) obtained in Example 5. […] When actinonin (Peptide Institute), a metalloprotease inhibitor, was added at a varying concentration to this reaction mixture, it inhibited metalloprotease activity with a 50% inhibitory concentration of about 10 μM. It was, therefore, clear that this assay system can be used for the screening of inhibitors of the human liver-derived metalloprotease.

[2] = target: T1, human liver-derived metalloprotease; assay: PER assay of casein hydrolyzing activity in culture supernatant of COS-7 cells transfected with pTB1921; format: biochemical; parameters: expressed in transfected cells; host or cells: COS-7; conditions: supernatant activated with 1 mM aminophenyl-mercuric acetate, 37° C., 30 minutes
Method: Add aminophenyl mercuric acetate (final concentration 1 mM) to the protein of the present invention and react at 37° C. for 30 minutes. Electrophorese the reaction mixture on SDS-polyacrylamide gels (non-reducing) in accordance with PER (F. T. Lundy et al., Electrophoresis, 16, 43, 1995). Then, saturate the polyacrylamide gels with the substrate and react in the reaction medium at 37° C. for 16 hours. After the reaction, stain the gels with CBB to detect a proteolytic activity.
The pTB1921 obtained in Example 1, which had been inserted into the expression plasmied pCMV·SPORT (GIBCO/BRL), was used for expression in animal cells. The COS-7 cell line (purchased from the Institute for Fermentation, Osaka) was cultured in serum-containing DMEM and subcultured on the day before introduction of the gene. When the culture became 50% confluent, the COS-7 cells were washed with serum-free DMEM, and 2.5 ml of serum-free medium was added. […]
To the cell culture supernatant obtained in Example 2 was added aminophenyl-mercuric acetate (final concentration 1 mM) and the reaction was carried out at 37° C. for 30 minutes. The activity was then determined by the PER assay (F. T. Lundy et al., Electrophoresis, 16, 43, 1995). As a result, casein hydrolyzing activity which was not found in the mock culture supernatant was detected in the culture supernatant of COS-7 cells transfected with pTB1921.

IC50 [1]	inhibition of casein hydrolyzing activity [2]	SMILES
~10 µM		CCCCC[C@H](CC(=O)NO)C(=O)N[C@H](C(=O)N1CCC[C@H]1CO)C(C)C [actinonin]
	inhibited	c1cnc2c(c1)ccc1cccnc12 [o-phenanthroline]
